Data published in patent US20040038861A1, “Methods and compositions for normalizing lipid levels in mammalian tissues” (priority 2001, published 2004).
Read-outs that look alike come from different tables or passages of the source.

Legend:
[1] = molecular target: T1, murine ramp 1/C1ins− receptor (Mus musculus, UniProt Q60755+Q9WTJ5); test: Radioligand binding and displacement of [3H]amylin in L6 myoblasts co-transfected with murine ramp 1 and C1ins−; details: 10 nM radioligand, FIG. 8D
T1 construct: expressed in transfected cells; host or cells: L6 myoblasts (ATCC), transient co-transfection of pcDNA3.1 plasmids
T1 sequence (Q60755 42-496 isoform Q60755-2 limits assumed): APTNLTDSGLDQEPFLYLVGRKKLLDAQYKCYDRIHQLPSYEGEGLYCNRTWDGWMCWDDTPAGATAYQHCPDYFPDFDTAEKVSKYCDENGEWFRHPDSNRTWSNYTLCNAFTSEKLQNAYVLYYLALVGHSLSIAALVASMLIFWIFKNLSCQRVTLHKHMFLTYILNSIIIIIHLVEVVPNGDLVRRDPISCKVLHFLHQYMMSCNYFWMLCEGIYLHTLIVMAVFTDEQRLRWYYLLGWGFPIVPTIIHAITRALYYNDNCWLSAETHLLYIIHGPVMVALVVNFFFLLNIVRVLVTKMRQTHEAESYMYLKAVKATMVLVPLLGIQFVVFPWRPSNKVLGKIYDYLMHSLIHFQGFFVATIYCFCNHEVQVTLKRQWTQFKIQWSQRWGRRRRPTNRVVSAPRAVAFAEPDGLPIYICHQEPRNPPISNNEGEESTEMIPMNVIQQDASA
T1 sequence (Q9WTJ5 27-148 partner): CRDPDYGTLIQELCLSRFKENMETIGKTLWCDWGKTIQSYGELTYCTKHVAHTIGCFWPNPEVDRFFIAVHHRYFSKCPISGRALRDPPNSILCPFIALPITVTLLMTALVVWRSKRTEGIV
Experimental: Transfection of L6 myoblasts and cos-7 cells, and analysis of radioligand binding. L6 myoblasts and cos-7 cells were obtained from ATCC. Both cell lines were cultered in Dulbecco's modified Eagle's medium (DMEM; Gibco/BRL, high glucose) supplemented with 10% fetal calf serum (Gibco/BRL, Gaithersburg, Md.), L-glutamine (2 mM), penicillin (100 U/ml; Sigma), streptomycin (100 mg/ml; Sigma), saline (0.85%), under 5% CO2/95% air at 37° C. The day before transfection, cells were trypsinised and seeded into six-well plates at a density of 2.9×10^5 cells/well in the same medium. For transfection, cells were incubated with a mixture comprising 1 μg each of Qiagen-purified (Qiagen, Valencia, Calif.) plasmids containing C1ins− with either ramp 1 or ramp 3, and Fugene reagent (6 μl; Boehringer Mannheim) in Opti-Mem I medium (Gibco/BRL). The complex was added with serum to cells, which were incubated for a further 48 h.
For binding experiments, radioligand (either alone or together with stated final concentrations of non-radiolabeled ligands) was dissolved in DMEM containing 0.1% BSA (binding buffer) for 1 h before binding experiments were performed. […] Cells were washed twice with this buffer, then incubated with 1 ml of the same plus radioligand for 4 h at room temperature (21° C.).

soleus muscle = test: Masoprocol effect on CGRP1-evoked NEFA and triglyceride contents in soleus muscle from high fat-fed rats; assay type: cell-based, rat
Source text: Masoprocol, (nordihydroguaiaretic acid), is a lipoxygenase inhibitor, that has been identified as the active component of Creosote bush extracts. Oral administration of this compound lowers serum NEFA and triglyceride concentrations in rats with fructose-induced hypertriglyceridemia (Gowri et al. 2000, Am. J. Physiol. 279: E593-E600), and decrease blood glucose and triglyceride concentrations in a fat-fed/streptozotocin rat model (Reed et al. 1999, Diabetologia 42: 102-106).

[2] = molecular target: CGRP-1 binding sites in rat skeletal muscle membrane; details: rat skeletal muscle membrane preparations, cited from earlier work
[3] = molecular target: binding sites for CGRP in rat liver membranes; details: cited from earlier work
[4] = 1 pM CGRP1, high fat-fed soleus
[5] = 100 nM CGRP1, high fat-fed soleus
[6] = read-out: Kd, high affinity binding site
[7] = read-out: Kd, second binding site

Rat amylin
specific binding of [3H]radioligand to L6 myoblasts co-transfected with ramp 1 and C1ins− [1]: significant increases in specific binding

rat CGRP-1
NEFA elevation (soleus muscle; [4]): 482 ± 99 nmol/g | soleus triglyceride content (decrement) (soleus muscle; [4]): 1.2 mmol/g | NEFA elevation (soleus muscle; [5]): 533 ± 114 nmol/g | soleus triglyceride content (decrement) (soleus muscle; [5]): 1.2 mmol/g | Kd [2, 6]: ~0.037 nM | Kd [2, 7]: ~6 nM | Kd [3, 6]: ~0.044 nM | Kd [3, 7]: ~27 nM
